Calls of active or inactive are those of the source. The rule behind the calls is not given here.
Key:
[1] = biological target: T1, Muscarinic acetylcholine receptor M1 (Homo sapiens, UniProt P11229); test: Compound was evaluated for binding affinity against Muscarinic M1 receptor using radioligand binding assay
T1 sequence (P11229 whole entry): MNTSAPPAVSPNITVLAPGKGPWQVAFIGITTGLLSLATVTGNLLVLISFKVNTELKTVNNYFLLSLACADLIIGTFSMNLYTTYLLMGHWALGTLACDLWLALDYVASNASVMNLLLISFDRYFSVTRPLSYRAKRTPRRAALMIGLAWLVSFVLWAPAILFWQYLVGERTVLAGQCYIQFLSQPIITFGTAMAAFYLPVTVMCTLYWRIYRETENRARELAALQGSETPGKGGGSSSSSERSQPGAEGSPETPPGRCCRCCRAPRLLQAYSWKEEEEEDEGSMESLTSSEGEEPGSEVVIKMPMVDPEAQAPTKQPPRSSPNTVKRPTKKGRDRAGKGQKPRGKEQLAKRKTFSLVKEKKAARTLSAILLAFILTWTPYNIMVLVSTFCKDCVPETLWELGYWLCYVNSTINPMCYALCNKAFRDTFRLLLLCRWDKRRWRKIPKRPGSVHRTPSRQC

D(2) dopamine receptor = D(2) dopamine receptor (Homo sapiens, UniProt P14416); test: Compound was evaluated for binding affinity against Dopamine D2 receptor using radioligand binding assay
[2] = biological target: T2, Alpha-1A adrenergic receptor (Homo sapiens, UniProt P35348); test: Compound was evaluated for binding affinity against Alpha-1C adrenergic receptor using radioligand binding assay
T2 sequence (P35348 whole entry): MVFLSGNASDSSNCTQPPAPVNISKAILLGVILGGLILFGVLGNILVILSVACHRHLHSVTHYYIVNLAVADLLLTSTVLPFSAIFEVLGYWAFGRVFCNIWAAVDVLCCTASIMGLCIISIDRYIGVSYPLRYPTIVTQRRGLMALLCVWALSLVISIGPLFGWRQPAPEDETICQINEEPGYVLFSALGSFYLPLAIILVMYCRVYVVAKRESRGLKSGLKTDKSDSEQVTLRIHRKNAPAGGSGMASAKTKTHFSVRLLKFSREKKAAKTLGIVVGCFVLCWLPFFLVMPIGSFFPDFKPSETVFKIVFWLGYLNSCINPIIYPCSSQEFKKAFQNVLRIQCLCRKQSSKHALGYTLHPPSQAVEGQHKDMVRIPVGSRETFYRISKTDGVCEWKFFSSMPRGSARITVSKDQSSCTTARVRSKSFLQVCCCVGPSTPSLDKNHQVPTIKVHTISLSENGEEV

[3] = biological target: 5-hydroxytryptamine receptor 2A (Homo sapiens, UniProt P28223); test: Compound was evaluated for binding affinity against 5-hydroxytryptamine 2A receptor using radioligand binding assay
[4] = Compound was tested for its half-life period at an intravenous dose of 3 ug/kg; type: ADME, organism-based, Sus scrofa; conditions: pig, in vivo, 0.003 mg/kg
D(1A) dopamine receptor = D(1A) dopamine receptor (Homo sapiens, UniProt P21728); test: Compound was evaluated for binding affinity against Dopamine D1 receptor using radioligand binding assay
[5] = biological target: T3, 5-hydroxytryptamine receptor 2C (Homo sapiens, UniProt P28335); test: Compound was evaluated for binding affinity against 5-hydroxytryptamine 2C receptor using radioligand binding assay
T3 sequence (P28335 whole entry): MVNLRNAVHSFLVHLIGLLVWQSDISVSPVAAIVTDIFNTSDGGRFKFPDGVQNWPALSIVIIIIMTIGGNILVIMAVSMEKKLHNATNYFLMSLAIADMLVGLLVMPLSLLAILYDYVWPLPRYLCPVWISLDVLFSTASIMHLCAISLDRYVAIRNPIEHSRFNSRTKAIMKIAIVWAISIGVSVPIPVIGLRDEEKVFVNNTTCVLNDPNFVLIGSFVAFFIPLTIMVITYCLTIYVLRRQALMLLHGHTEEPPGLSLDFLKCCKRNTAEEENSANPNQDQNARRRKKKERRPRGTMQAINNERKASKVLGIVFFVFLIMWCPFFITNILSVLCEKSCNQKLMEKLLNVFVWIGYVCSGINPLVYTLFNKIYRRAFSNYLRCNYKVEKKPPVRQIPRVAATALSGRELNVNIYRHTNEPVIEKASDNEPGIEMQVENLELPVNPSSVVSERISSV

[6] = biological target: Serotonin 3 (5-HT3) receptor; test: Compound was evaluated for binding affinity against 5-hydroxytryptamine 3 receptor using radioligand binding assay; type: protein-complex assay
[7] = biological target: T4, Type-1 angiotensin II receptor (Homo sapiens, UniProt P30556); test: Compound was evaluated for binding affinity against Angiotensin II receptor, type 1 using radioligand binding assay
T4 sequence (P30556 whole entry): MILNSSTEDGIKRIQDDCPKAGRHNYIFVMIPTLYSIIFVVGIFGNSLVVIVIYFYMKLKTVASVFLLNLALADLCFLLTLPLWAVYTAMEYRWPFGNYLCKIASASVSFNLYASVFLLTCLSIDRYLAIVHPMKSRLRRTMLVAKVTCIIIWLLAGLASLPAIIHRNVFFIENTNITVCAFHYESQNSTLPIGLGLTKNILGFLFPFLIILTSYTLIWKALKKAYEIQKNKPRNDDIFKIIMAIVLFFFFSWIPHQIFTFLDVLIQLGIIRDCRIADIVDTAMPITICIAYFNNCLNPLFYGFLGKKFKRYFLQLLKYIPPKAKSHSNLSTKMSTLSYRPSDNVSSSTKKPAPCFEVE

Sus scrofa [8] = test: Antagonism of 5-HT-induced tachycardia in anesthetized, vagotomized Yucatan micropigs at 0.1-30 ug/kg dose administered intraduodenally; type: functional; conditions: intraduodenal, read-out: ID50 (the source's name)
[9] = biological target: T5, Muscarinic acetylcholine receptor M2 (Homo sapiens, UniProt P08172); test: Compound was evaluated for binding affinity against Muscarinic M2 receptor using radioligand binding assay
T5 sequence (P08172 whole entry): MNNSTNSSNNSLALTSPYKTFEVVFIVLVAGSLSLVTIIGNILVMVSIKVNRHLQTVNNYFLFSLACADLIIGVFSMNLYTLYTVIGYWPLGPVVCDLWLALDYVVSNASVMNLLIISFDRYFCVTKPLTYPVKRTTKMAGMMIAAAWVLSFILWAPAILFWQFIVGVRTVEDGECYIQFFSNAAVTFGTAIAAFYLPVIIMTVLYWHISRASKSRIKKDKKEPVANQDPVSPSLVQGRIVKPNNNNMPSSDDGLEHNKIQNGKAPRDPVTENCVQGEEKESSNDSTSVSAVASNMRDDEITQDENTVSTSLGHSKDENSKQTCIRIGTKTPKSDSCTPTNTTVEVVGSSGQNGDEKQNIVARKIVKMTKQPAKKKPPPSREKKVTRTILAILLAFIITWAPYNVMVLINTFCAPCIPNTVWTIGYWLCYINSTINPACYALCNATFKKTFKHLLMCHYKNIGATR

[10] = biological target: T6, Alpha-2B adrenergic receptor (Homo sapiens, UniProt P18089); test: Compound was evaluated for binding affinity against Alpha-2B adrenergic receptor using radioligand binding assay
T6 sequence (P18089 whole entry): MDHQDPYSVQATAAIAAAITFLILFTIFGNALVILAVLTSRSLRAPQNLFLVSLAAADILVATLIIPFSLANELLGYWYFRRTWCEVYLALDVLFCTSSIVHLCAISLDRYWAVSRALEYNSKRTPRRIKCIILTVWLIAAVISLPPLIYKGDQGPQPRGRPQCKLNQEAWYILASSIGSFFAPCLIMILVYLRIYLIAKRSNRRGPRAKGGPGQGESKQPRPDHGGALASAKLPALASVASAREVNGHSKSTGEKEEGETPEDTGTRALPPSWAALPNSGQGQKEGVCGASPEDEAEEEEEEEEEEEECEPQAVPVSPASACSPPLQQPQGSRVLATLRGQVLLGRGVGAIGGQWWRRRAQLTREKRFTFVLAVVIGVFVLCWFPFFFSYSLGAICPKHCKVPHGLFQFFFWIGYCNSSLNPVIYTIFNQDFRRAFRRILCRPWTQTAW

[11] = biological target: 5-hydroxytryptamine receptor 4 (Cavia porcellus, UniProt O70528); test: Compound was evaluated for binding affinity against 5-hydroxytryptamine 4 receptor using radioligand binding assay using [3H]GR as radioligand
[12] = biological target: Muscarinic acetylcholine receptor M3 (Homo sapiens, UniProt P20309); test: Compound was evaluated for binding affinity against Muscarinic M3 receptor using radioligand binding assay
Sus scrofa [13] = test: Antagonism of 5-HT-induced tachycardia in anesthetized, vagotomized Yucatan micropigs at 0.03-10 ug/kg dose administered intravenously; type: functional; conditions: iv, read-out: ID50 (the source's name)
[14] = biological target: T7, 5-hydroxytryptamine receptor 1A (Mus musculus, UniProt Q64264); test: Compound was evaluated for binding affinity against 5-hydroxytryptamine 1A receptor using radioligand binding assay
T7 sequence (Q64264 whole entry): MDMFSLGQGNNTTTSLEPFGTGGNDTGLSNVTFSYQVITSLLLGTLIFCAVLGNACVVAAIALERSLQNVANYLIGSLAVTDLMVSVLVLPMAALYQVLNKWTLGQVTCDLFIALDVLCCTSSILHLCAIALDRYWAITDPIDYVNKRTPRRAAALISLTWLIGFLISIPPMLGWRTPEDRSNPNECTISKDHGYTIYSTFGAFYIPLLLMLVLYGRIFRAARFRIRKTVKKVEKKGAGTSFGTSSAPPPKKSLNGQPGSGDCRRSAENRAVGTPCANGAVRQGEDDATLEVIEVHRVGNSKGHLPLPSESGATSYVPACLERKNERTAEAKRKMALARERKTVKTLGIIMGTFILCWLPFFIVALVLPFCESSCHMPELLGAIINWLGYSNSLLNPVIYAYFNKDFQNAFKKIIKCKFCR

[15] = biological target: T8, Alpha-2A adrenergic receptor (Homo sapiens, UniProt P08913); test: Compound was evaluated for binding affinity against Alpha-2A adrenergic receptor using radioligand binding assay
T8 sequence (P08913 whole entry): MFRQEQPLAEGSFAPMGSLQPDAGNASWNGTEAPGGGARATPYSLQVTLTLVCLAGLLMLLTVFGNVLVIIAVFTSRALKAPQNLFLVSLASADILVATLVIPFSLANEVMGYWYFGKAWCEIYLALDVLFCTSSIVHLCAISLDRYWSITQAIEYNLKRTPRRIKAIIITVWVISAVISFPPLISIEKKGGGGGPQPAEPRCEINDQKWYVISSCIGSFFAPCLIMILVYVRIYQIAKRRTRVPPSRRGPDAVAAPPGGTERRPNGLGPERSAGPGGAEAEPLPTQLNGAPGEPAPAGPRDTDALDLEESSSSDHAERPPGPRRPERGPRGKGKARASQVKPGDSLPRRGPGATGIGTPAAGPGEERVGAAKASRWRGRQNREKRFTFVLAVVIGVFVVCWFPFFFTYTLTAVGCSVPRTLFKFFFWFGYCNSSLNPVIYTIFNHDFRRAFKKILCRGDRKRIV

[16] = biological target: T9, Type-2 angiotensin II receptor (Homo sapiens, UniProt P50052); test: Compound was evaluated for binding affinity against Angiotensin II receptor, type 2 using radioligand binding assay
T9 sequence (P50052 whole entry): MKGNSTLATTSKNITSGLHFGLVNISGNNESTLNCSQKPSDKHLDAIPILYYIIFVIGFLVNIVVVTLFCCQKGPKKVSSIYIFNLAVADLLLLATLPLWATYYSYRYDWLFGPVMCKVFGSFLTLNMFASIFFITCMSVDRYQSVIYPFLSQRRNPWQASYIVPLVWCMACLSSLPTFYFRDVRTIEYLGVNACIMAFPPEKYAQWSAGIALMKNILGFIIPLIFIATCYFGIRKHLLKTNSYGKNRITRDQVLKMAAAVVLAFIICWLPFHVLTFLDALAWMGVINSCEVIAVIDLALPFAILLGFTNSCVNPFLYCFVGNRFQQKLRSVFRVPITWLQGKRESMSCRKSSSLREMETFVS

[17] = biological target: T10, Alpha-1B adrenergic receptor (Homo sapiens, UniProt P35368); test: Compound was evaluated for binding affinity against Alpha-1B adrenergic receptor using radioligand binding assay
T10 sequence (P35368 whole entry): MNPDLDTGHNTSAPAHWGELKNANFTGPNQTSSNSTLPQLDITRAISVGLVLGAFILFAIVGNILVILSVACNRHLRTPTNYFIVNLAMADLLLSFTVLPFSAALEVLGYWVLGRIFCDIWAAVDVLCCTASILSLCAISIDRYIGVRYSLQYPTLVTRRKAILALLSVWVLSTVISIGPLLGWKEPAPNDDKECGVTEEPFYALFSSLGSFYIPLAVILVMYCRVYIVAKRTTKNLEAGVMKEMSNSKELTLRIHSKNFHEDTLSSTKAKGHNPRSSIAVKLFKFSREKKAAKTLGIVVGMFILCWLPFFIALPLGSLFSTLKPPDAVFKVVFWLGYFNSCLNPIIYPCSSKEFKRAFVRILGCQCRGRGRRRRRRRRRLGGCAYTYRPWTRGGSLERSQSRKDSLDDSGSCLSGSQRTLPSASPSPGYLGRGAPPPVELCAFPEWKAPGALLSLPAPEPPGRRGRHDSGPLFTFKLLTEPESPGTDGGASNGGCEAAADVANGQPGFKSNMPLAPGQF

Sus scrofa [18] = test: Antagonism of 5-HT-induced tachycardia in anesthetized, vagotomized Yucatan micropigs at 0.1-300 ug/kg dose administered intravenously; type: functional; conditions: iv, read-out: ID50 (the source's name)
[19] = biological target: 5-hydroxytryptamine receptor 4 (Rattus norvegicus) (UniProt Q62758); test: Antagonist activity against 5-HT4 receptor mediated relaxation of rat carbachol contracted esophageal muscularis mucosae; type: functional
Sus scrofa [20] = test: Antagonism of 5-HT-induced tachycardia in anesthetized, vagotomized Yucatan micropigs at 3-3000 ug/kg dose administered intraduodenally; no effect; type: functional, organism-based
[21] = Compound was tested for its half-life period at an intravenous dose of 30 ug/kg; type: ADME, organism-based, Sus scrofa; conditions: pig, in vivo, 0.03 mg/kg

Chain of 5-hydroxytryptamine receptor 4 (Rattus norvegicus) (Q62758 whole entry): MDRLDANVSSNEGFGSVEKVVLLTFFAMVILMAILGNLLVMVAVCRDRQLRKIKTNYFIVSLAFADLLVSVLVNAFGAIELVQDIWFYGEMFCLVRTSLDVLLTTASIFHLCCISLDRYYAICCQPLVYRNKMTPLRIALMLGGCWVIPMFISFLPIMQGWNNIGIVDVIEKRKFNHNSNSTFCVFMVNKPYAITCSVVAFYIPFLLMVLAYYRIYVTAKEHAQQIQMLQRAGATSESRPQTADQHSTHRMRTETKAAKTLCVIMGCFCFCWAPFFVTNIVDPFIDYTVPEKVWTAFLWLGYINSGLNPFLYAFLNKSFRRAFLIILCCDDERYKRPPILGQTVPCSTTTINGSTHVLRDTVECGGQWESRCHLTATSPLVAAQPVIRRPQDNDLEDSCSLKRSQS
Chain of 5-hydroxytryptamine receptor 2A (P28223 whole entry): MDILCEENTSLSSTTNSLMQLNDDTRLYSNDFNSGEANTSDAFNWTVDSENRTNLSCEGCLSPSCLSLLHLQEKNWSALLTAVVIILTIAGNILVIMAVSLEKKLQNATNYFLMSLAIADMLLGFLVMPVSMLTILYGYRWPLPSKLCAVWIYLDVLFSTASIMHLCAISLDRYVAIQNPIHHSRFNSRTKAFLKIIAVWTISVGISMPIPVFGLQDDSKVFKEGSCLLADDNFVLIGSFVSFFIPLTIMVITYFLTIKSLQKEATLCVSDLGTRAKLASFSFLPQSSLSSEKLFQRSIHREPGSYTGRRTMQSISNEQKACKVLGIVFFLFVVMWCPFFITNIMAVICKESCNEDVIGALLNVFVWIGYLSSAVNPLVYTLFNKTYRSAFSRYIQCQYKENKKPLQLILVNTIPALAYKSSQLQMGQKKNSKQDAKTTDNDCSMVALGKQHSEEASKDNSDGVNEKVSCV
Chain of D(2) dopamine receptor (P14416 whole entry): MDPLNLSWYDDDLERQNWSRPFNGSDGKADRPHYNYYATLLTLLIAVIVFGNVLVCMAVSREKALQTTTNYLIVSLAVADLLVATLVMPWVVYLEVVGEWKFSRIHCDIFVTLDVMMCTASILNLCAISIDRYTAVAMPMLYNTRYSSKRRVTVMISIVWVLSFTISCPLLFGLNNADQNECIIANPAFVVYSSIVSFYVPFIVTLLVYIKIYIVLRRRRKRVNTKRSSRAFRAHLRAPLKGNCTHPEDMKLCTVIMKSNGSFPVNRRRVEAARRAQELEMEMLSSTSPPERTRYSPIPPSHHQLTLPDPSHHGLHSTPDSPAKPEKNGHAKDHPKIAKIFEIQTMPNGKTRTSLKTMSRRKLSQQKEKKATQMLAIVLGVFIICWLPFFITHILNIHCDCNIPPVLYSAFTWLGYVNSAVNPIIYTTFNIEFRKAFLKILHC
Chain of Muscarinic acetylcholine receptor M3 (P20309 whole entry): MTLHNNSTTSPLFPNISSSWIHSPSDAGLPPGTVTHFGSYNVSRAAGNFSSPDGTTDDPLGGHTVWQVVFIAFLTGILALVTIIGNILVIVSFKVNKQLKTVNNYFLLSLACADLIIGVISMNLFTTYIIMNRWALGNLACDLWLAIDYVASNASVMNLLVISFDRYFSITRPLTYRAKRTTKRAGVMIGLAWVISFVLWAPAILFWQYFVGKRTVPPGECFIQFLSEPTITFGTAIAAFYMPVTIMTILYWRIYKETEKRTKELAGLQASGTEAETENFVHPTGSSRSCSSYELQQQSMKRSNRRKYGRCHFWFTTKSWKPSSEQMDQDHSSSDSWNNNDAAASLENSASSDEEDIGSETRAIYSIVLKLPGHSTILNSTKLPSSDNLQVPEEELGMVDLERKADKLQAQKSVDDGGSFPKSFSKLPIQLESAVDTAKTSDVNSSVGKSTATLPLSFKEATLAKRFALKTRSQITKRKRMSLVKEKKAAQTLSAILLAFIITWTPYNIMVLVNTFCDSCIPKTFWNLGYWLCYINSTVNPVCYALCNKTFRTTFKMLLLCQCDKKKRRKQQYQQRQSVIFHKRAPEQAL
Chain of 5-hydroxytryptamine receptor 4 (O70528 whole entry): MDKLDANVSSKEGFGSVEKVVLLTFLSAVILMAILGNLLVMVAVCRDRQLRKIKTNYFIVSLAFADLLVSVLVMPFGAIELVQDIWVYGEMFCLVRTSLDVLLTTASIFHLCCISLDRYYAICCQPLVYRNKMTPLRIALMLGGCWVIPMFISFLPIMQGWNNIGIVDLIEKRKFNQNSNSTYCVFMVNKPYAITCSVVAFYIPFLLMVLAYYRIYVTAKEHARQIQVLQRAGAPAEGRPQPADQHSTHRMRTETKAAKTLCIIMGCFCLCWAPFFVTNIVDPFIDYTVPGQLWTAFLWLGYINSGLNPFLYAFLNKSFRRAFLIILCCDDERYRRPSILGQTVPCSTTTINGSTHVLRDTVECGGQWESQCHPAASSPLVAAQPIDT
Chain of D(1A) dopamine receptor (P21728 whole entry): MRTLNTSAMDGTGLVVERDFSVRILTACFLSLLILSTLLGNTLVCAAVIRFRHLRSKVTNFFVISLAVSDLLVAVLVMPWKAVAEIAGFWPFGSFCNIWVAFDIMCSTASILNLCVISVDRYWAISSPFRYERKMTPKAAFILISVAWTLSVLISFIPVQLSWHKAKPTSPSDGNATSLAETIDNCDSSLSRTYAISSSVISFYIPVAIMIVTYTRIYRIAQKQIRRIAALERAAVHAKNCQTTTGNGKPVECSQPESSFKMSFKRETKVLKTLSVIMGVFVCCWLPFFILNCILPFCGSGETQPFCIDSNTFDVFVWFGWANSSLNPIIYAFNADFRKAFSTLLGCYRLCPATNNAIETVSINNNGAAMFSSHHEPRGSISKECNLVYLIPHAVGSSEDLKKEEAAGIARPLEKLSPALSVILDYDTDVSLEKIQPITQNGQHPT

COc1ccc(CCCN2CCC(CCC(=O)c3cc(Cl)c(N)c4c3OCCO4)CC2)cc1OC
Ki [1]: 1580 nM | Ki (D(2) dopamine receptor): 316 nM | Ki [2]: 316 nM | Ki [3]: 501 nM | half-life [4]: > 6 h | Ki (D(1A) dopamine receptor): > 10000 nM | Ki [5]: 1580 nM | Log Ki [6]: -6.3 | Ki [7]: > 10000 nM | ED50 (Sus scrofa [8]): 1.52 µg/kg | Ki [9]: 1260 nM | Ki [10]: 2510 nM | Ki [11]: 0.1 nM | Ki [12]: 2000 nM | ED50 (Sus scrofa [13]): 0.55 µg/kg | Ki [14]: 1000 nM | Ki [15]: 100 nM | Ki [16]: > 10000 nM | Ki [17]: 501 nM

CCCCN1CCC(COC(=O)c2cc(Cl)c(N)c3c2OCCO3)CC1
ED50 (Sus scrofa [18]): 8 µg/kg | pKb [19]: 10.3 | ID50 (Sus scrofa [20]): inactive | half-life [21]: < 2.5 h

CS(=O)(=O)NCCN1CCC(CCC(=O)c2cc(Cl)c(N)c3c2OCCO3)CC1
pKb [19]: 9.9

Nc1c(Cl)cc(C(=O)CCC2CCN(CCCc3ccccc3)CC2)c2c1OCCO2
pKb [19]: 9.6

Source: ChEMBL document CHEMBL1153669, “Rs-100235: A high affinity 5-HT4 receptor antagonist” (Bioorg Med Chem Lett, 1995)
